± gives the uncertainty stated by the source.
Experiment: xn = mol fraction of the nth substance listed
Conditions: for electrical conductivity: 101 kPa

CCCCCCCCCCCCCC[n+]1ccccc1.O=C([O-])C(O)c1ccccc1 + O
electrical conductivity (293.15 K, x1 = 6.85e-06): 0.00248 ± 0.00074 S/m
electrical conductivity (293.15 K, x1 = 1.424e-05): 0.00472 ± 0.00079 S/m
electrical conductivity (293.15 K, x1 = 2.126e-05): 0.00671 ± 0.0009 S/m
electrical conductivity (293.15 K, x1 = 2.811e-05): 0.0086 ± 0.001 S/m
electrical conductivity (293.15 K, x1 = 3.46e-05): 0.0103 ± 0.0011 S/m
electrical conductivity (293.15 K, x1 = 4.108e-05): 0.0117 ± 0.0012 S/m
electrical conductivity (293.15 K, x1 = 4.811e-05): 0.0129 ± 0.0013 S/m
electrical conductivity (293.15 K, x1 = 5.388e-05): 0.0137 ± 0.0014 S/m
electrical conductivity (293.15 K, x1 = 5.982e-05): 0.0145 ± 0.0015 S/m
electrical conductivity (293.15 K, x1 = 6.559e-05): 0.0153 ± 0.0016 S/m
electrical conductivity (293.15 K, x1 = 7.081e-05): 0.016 ± 0.0016 S/m
electrical conductivity (293.15 K, x1 = 7.604e-05): 0.0167 ± 0.0017 S/m
electrical conductivity (293.15 K, x1 = 8.072e-05): 0.0173 ± 0.0018 S/m
electrical conductivity (298.15 K, x1 = 6.85e-06): 0.00278 ± 0.00083 S/m
electrical conductivity (298.15 K, x1 = 1.424e-05): 0.00529 ± 0.00089 S/m
electrical conductivity (298.15 K, x1 = 2.126e-05): 0.0076 ± 0.001 S/m
electrical conductivity (298.15 K, x1 = 2.811e-05): 0.0097 ± 0.0012 S/m
electrical conductivity (298.15 K, x1 = 3.46e-05): 0.0116 ± 0.0013 S/m
electrical conductivity (298.15 K, x1 = 4.108e-05): 0.0131 ± 0.0014 S/m
electrical conductivity (298.15 K, x1 = 4.811e-05): 0.0144 ± 0.0015 S/m
electrical conductivity (298.15 K, x1 = 5.388e-05): 0.0154 ± 0.0016 S/m
electrical conductivity (298.15 K, x1 = 5.982e-05): 0.0163 ± 0.0017 S/m
electrical conductivity (298.15 K, x1 = 6.559e-05): 0.0172 ± 0.0018 S/m
electrical conductivity (298.15 K, x1 = 7.081e-05): 0.018 ± 0.0018 S/m
electrical conductivity (298.15 K, x1 = 7.604e-05): 0.0187 ± 0.0019 S/m
electrical conductivity (298.15 K, x1 = 8.072e-05): 0.0194 ± 0.002 S/m
electrical conductivity (303.15 K, x1 = 6.85e-06): 0.00309 ± 0.00092 S/m
electrical conductivity (303.15 K, x1 = 1.424e-05): 0.00587 ± 0.00099 S/m
electrical conductivity (303.15 K, x1 = 2.126e-05): 0.0084 ± 0.0011 S/m
electrical conductivity (303.15 K, x1 = 2.811e-05): 0.0108 ± 0.0013 S/m
electrical conductivity (303.15 K, x1 = 3.46e-05): 0.0129 ± 0.0014 S/m
electrical conductivity (303.15 K, x1 = 4.108e-05): 0.0146 ± 0.0015 S/m
electrical conductivity (303.15 K, x1 = 4.811e-05): 0.0161 ± 0.0017 S/m
electrical conductivity (303.15 K, x1 = 5.388e-05): 0.0172 ± 0.0018 S/m
electrical conductivity (303.15 K, x1 = 5.982e-05): 0.0182 ± 0.0019 S/m
electrical conductivity (303.15 K, x1 = 6.559e-05): 0.0192 ± 0.0019 S/m
electrical conductivity (303.15 K, x1 = 7.081e-05): 0.02 ± 0.002 S/m
electrical conductivity (303.15 K, x1 = 7.604e-05): 0.0209 ± 0.0021 S/m
electrical conductivity (303.15 K, x1 = 8.072e-05): 0.0217 ± 0.0022 S/m
electrical conductivity (308.15 K, x1 = 6.85e-06): 0.0034 ± 0.001 S/m
electrical conductivity (308.15 K, x1 = 1.424e-05): 0.0065 ± 0.0011 S/m
electrical conductivity (308.15 K, x1 = 2.126e-05): 0.0093 ± 0.0013 S/m
electrical conductivity (308.15 K, x1 = 2.811e-05): 0.0122 ± 0.0015 S/m
electrical conductivity (308.15 K, x1 = 3.46e-05): 0.0145 ± 0.0016 S/m
electrical conductivity (308.15 K, x1 = 4.108e-05): 0.0161 ± 0.0017 S/m
electrical conductivity (308.15 K, x1 = 4.811e-05): 0.0179 ± 0.0019 S/m
electrical conductivity (308.15 K, x1 = 5.388e-05): 0.0191 ± 0.002 S/m
electrical conductivity (308.15 K, x1 = 5.982e-05): 0.0202 ± 0.0021 S/m
electrical conductivity (308.15 K, x1 = 6.559e-05): 0.0213 ± 0.0022 S/m
electrical conductivity (308.15 K, x1 = 7.081e-05): 0.0223 ± 0.0023 S/m
electrical conductivity (308.15 K, x1 = 7.604e-05): 0.0232 ± 0.0024 S/m
electrical conductivity (308.15 K, x1 = 8.072e-05): 0.0241 ± 0.0024 S/m
electrical conductivity (313.15 K, x1 = 6.85e-06): 0.0037 ± 0.0011 S/m
electrical conductivity (313.15 K, x1 = 1.424e-05): 0.0071 ± 0.0012 S/m
electrical conductivity (313.15 K, x1 = 2.126e-05): 0.0101 ± 0.0014 S/m
electrical conductivity (313.15 K, x1 = 2.811e-05): 0.0131 ± 0.0016 S/m
electrical conductivity (313.15 K, x1 = 3.46e-05): 0.0157 ± 0.0018 S/m
electrical conductivity (313.15 K, x1 = 4.108e-05): 0.0179 ± 0.0019 S/m
electrical conductivity (313.15 K, x1 = 4.811e-05): 0.0198 ± 0.0021 S/m
electrical conductivity (313.15 K, x1 = 5.388e-05): 0.0211 ± 0.0022 S/m
electrical conductivity (313.15 K, x1 = 5.982e-05): 0.0224 ± 0.0023 S/m
electrical conductivity (313.15 K, x1 = 6.559e-05): 0.0236 ± 0.0024 S/m
electrical conductivity (313.15 K, x1 = 7.081e-05): 0.0246 ± 0.0025 S/m
electrical conductivity (313.15 K, x1 = 7.604e-05): 0.0258 ± 0.0026 S/m
electrical conductivity (313.15 K, x1 = 8.072e-05): 0.0266 ± 0.0027 S/m

CCCCCC[n+]1ccn(C)c1C.O=S(=O)([N-]S(=O)(=O)C(F)(F)F)C(F)(F)F + CCCCCCCCCCCCCC[P+](CCCCCC)(CCCCCC)CCCCCC.O=S(=O)([N-]S(=O)(=O)C(F)(F)F)C(F)(F)F
viscosity (278.15 K, 100 kPa, x1 = 0.6): 930 ± 120 mPa·s
